Starred links: 1 amine or outer side, 2 acyl side, 3 side chain; linkers in the order of their positions; H or OH if unused. Positions of bridges follow the written chain, without caps; N, C: chain ends. Non-standard residues stand in square brackets, D forms with d. Residues, ends and D or L forms follow the SMILES beside them. Groups on a side chain read outwards from the residue. *: point of attachment. X6 = O=C(O)CCCCCCCCCCCCCCCCC(=O)N[C@@H](CCC(=O)NCCCOCCOCCOCCCN*)C(=O)O; X4 = O=C(O)CCCCCCCCCCCCCCCCC(=O)N[C@@H](CC(=O)NCCCOCCOCCOCCCN*)C(=O)O; X11 = O=C(O)CCCCCCCCCCCCC(=O)N[C@@H](CCC(=O)NCCCOCCOCCOCCCN*)C(=O)O; Trp(1-CH2COOH) = N[C@@H](Cc1cn(CC(=O)O)c2ccccc12)C(=O)O; X23 = O=C(CCCCOCCOCCOCCCN[*:3])C[C@H](N[*:1])C(=O)[*:2]; X9 = O=C(O)CCCCCCCCCCCCCCCCC(=O)N[C@@H](CCN*)C(=O)O; X5 = O=C(O)CCCCCCCCCCCCCCCCC(=O)NCCCOCCOCCOCCCN*; NH(CH2)16COOH = O=C(O)CCCCCCCCCCCCCCCCN*; C16 diacid = O=C(O)CCCCCCCCCCCCCCC(=O)*; γGlu = O=C(O)[C@H](CCC(=O)[*:2])N[*:1]; d(cisHyp) = O=C(O)[C@H]1C[C@@H](O)CN1; βAsp = O=C(O)[C@H](CC(=O)[*:2])N[*:1]; Hyp = O=C(O)[C@@H]1C[C@@H](O)CN1; X32 = O=C(O)CCCCCCCCCCCCCCCCCCN*; dHyp = O=C(O)[C@H]1C[C@H](O)CN1; NMeNle = CCCC[C@H](NC)C(=O)O; Pip = O=C(O)[C@@H]1CCCCN1; NMeA = CN[C@@H](C)C(=O)O; Pra = C#CC[C@H](N)C(=O)O; Dab = NCC[C@H](N)C(=O)O; Dap = NC[C@H](N)C(=O)O; GABA = NCCCC(=O)O
biological target: T1, PD-L1 (Homo sapiens, UniProt Q9NZQ7); assay: PD-1/PD-L1 Homogenous Time-Resolved Fluorescence (HTRF) binding assay (PD-1-Ig/PD-L1-His); settings: inhibition of PD-1-Ig binding to PD-L1-TVMV-His; value given as number; read-out: HTRF IC50
T1 construct: hPDL1(19-239)-TVMV-His; made in house; host or cells: HEK293T
T1 sequence (Q9NZQ7 with tags, fused parts or gaps): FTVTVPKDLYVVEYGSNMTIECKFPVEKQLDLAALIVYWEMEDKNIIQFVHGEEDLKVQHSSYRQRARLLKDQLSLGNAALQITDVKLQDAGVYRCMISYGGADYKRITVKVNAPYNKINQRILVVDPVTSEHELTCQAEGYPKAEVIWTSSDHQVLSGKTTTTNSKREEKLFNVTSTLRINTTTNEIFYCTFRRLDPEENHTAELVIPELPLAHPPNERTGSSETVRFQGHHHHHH
Summary of the method: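 HTRF competition in dPBS with 0.1% BSA and 0.05% Tween-20: 20 nM PD-1-Ig added after 15 min compound pre-incubation with 10 nM PD-L1-His, then another 15 min. Signal (665/620 nm) after 30 min with APC anti-His (20 nM) and Eu anti-Ig (1 nM).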

IC50	SMILES
3.8 nM	CCCC[C@H]1C(=O)N(C)[C@@H](CCCC)C(=O)N[C@@H](CC(C)C)C(=O)N[C@H](C(=O)NCC(=O)N[C@@H](CC(=O)NCCCC(=O)NCC[C@H](NC(=O)CCCCCCCCCCCCCCCCC(=O)O)C(=O)O)C(=O)O)CSCC(=O)N[C@@H](Cc2ccc(O)cc2)C(=O)N2CCCC[C@H]2C(=O)N[C@@H](CC(N)=O)C(=O)N2CCC[C@H]2C(=O)N[C@@H](CN)C(=O)N[C@@H](CC(C)C)C(=O)N2C[C@H](O)C[C@H]2C(=O)N[C@@H](Cc2c[nH]c3ccccc23)C(=O)N[C@@H](CCN)C(=O)N[C@@H](Cc2cn(CC(=O)O)c3ccccc23)C(=O)N1C [Example 13162] ({CH2CO}-Y[Pip]NP[Dap]L[Hyp]W[Dab][Trp(1-CH2COOH)][NMeNle][NMeNle]LCG[βAsp][GABA]-X9; thioether N-14)
3 nM	CCCC[C@H]1C(=O)N(C)[C@@H](CCCC)C(=O)N[C@@H](CC(C)C)C(=O)N[C@H](C(=O)NCC(=O)N[C@@H](CC(=O)NCCCOCCOCCOCCCNC(=O)CC[C@H](NC(=O)CCCCCCCCCCCCCCCCC(=O)O)C(=O)O)C(=O)O)CSCC(=O)N[C@@H](Cc2ccc(O)cc2)C(=O)N(C)[C@@H](C)C(=O)N[C@@H](CC(N)=O)C(=O)N2CCC[C@H]2C(=O)N[C@@H](Cc2c[nH]cn2)C(=O)N[C@@H](CCC(=O)O)C(=O)N2C[C@H](O)C[C@H]2C(=O)N[C@@H](Cc2c[nH]c3ccccc23)C(=O)N[C@@H](CCN)C(=O)N[C@@H](Cc2cn(CC(=O)O)c3ccccc23)C(=O)N1C [Example 11179] ({CH2CO}-Y[NMeA]NPHE[Hyp]W[Dab][Trp(1-CH2COOH)][NMeNle][NMeNle]LCGD(X6)-OH; thioether N-14)
1570 nM	CCCC[C@H]1C(=O)N(C)[C@@H](CCCC)C(=O)N[C@@H](CC(C)C)C(=O)N[C@H](C(=O)NCCCOCCOCCOCCCNC(=O)CCCCCCCCCCCCCCCCC(=O)O)CSCC(=O)N[C@@H](Cc2ccc(O)cc2)C(=O)N(C)[C@@H](C)C(=O)N[C@@H](CC(N)=O)C(=O)N2CCC[C@H]2C(=O)N[C@@H](CN)C(=O)N[C@@H](CCC(N)=O)C(=O)N2C[C@H](O)C[C@H]2C(=O)N[C@@H](Cc2c[nH]c3ccccc23)C(=O)N[C@@H](CO)C(=O)N[C@@H](Cc2cn(CC(=O)O)c3ccccc23)C(=O)N1C [Example 11133] ({CH2CO}-Y[NMeA]NP[Dap]Q[Hyp]WS[Trp(1-CH2COOH)][NMeNle][NMeNle]LC-X5; thioether N-14)

same assay, conditions: inhibition of PD-1-Ig binding to PD-L1-TVMV-His; value given as range class; read-out: HTRF IC50

SMILES	IC50
CCCC[C@H]1C(=O)N(C)[C@@H](CCCC)C(=O)N[C@@H](CC(C)C)C(=O)N[C@H](C(=O)NCC(=O)N[C@@H](CCC(=O)O)C(=O)NCCCOCCOCCOCCCNC(=O)CC[C@H](NC(=O)CCCCCCCCCCCCC(=O)O)C(=O)O)CSCC(=O)N[C@@H](Cc2ccc(O)cc2)C(=O)N(C)[C@@H](C)C(=O)N[C@@H](CC(N)=O)C(=O)N2CCC[C@H]2C(=O)N[C@@H](CN)C(=O)N[C@@H](CC(C)C)C(=O)N2C[C@H](O)C[C@H]2C(=O)N[C@@H](Cc2c[nH]c3ccccc23)C(=O)N[C@@H](CCN)C(=O)N[C@@H](Cc2cn(CC(=O)O)c3ccccc23)C(=O)N1C [Example 11253] ({CH2CO}-Y[NMeA]NP[Dap]L[Hyp]W[Dab][Trp(1-CH2COOH)][NMeNle][NMeNle]LCGE-X11; thioether N-14)	0.3 to 9.9 nM
CCCC[C@H]1C(=O)N(C)[C@@H](CCCC)C(=O)N[C@@H](CC(C)C)C(=O)N[C@H](C(=O)NCC(=O)NCC(=O)NCCCCCCCCCCCCCCCCCCC(=O)O)CSCC(=O)N[C@@H](Cc2ccc(O)cc2)C(=O)N(C)[C@@H](C)C(=O)N[C@@H](CC(N)=O)C(=O)N2CCC[C@H]2C(=O)N[C@@H](CN)C(=O)N[C@@H](CC(C)C)C(=O)N2C[C@H](O)C[C@H]2C(=O)N[C@@H](Cc2c[nH]c3ccccc23)C(=O)N[C@@H](CCN)C(=O)N[C@@H](Cc2cn(CC(=O)O)c3ccccc23)C(=O)N1C [Example 11193] ({CH2CO}-Y[NMeA]NP[Dap]L[Hyp]W[Dab][Trp(1-CH2COOH)][NMeNle][NMeNle]LCGG-X32; thioether N-14)	10 to 99 nM
CCCC[C@H]1C(=O)N(C)[C@@H](CCCC)C(=O)N[C@@H](CC(C)C)C(=O)N[C@H](C(=O)NCC(=O)N[C@H](CC(=O)O)C(=O)NCCCCCCCCCCCCCCCCC(=O)O)CSCC(=O)N[C@@H](Cc2ccc(O)cc2)C(=O)N(C)[C@@H](C)C(=O)N[C@@H](CC(N)=O)C(=O)N2CCC[C@H]2C(=O)N[C@@H](CN)C(=O)N[C@@H](CC(C)C)C(=O)N2C[C@H](O)C[C@H]2C(=O)N[C@@H](Cc2c[nH]c3ccccc23)C(=O)N[C@@H](CCN)C(=O)N[C@@H](Cc2cn(CC(=O)O)c3ccccc23)C(=O)N1C [Example 11190] ({CH2CO}-Y[NMeA]NP[Dap]L[Hyp]W[Dab][Trp(1-CH2COOH)][NMeNle][NMeNle]LCG[dD]-{NH(CH2)16COOH}; thioether N-14)	10 to 99 nM
C#CC[C@H](NC(=O)CNC(=O)[C@@H]1CSCC(=O)N[C@@H](Cc2ccc(O)cc2)C(=O)N(C)[C@@H](C)C(=O)N[C@@H](CC(=O)O)C(=O)N2CCC[C@H]2C(=O)N[C@@H](Cc2c[nH]cn2)C(=O)N[C@@H](CCCCN)C(=O)N2C[C@H](O)C[C@H]2C(=O)N[C@@H](Cc2c[nH]c3ccccc23)C(=O)N[C@@H](CCCCN)C(=O)N[C@@H](Cc2cn(CC(=O)O)c3ccccc23)C(=O)N(C)[C@@H](CCCC)C(=O)N(C)[C@@H](CCCC)C(=O)N[C@@H](CCC(=O)O)C(=O)N1)C(=O)N[C@@H](CC(=O)O)C(N)=O [INT 1400E] ({CH2CO}-Y[NMeA]DPHK[Hyp]WK[Trp(1-CH2COOH)][NMeNle][NMeNle]ECG[Pra]D-NH2; thioether N-14)	0.3 to 9.9 nM
CCCC[C@H]1C(=O)N(C)[C@@H](CCCC)C(=O)N[C@@H](CC(C)C)C(=O)N[C@H](C(=O)NCC(=O)N[C@@H](CC(=O)NCC[C@H](NC(=O)CCCCCCCCCCCCCCCCC(=O)O)C(=O)O)C(=O)O)CSCC(=O)N[C@@H](Cc2ccc(OC)cc2)C(=O)N2CCCC[C@H]2C(=O)N[C@@H](CC(=O)O)C(=O)N2CCC[C@H]2C(=O)N[C@@H](Cc2c[nH]cn2)C(=O)N[C@@H](CCC(N)=O)C(=O)N2C[C@H](O)C[C@H]2C(=O)N[C@@H](Cc2c[nH]c3ccccc23)C(=O)N[C@@H](CCN)C(=O)N[C@@H](Cc2cn(CC(=O)O)c3ccccc23)C(=O)N1C [Example 13157] ({CH2CO}-Y(Me)[Pip]DPHQ[Hyp]W[Dab][Trp(1-CH2COOH)][NMeNle][NMeNle]LCGD(X9)-OH; thioether N-14)	0.3 to 9.9 nM

Further lines, results first:

IC50	SMILES
0.3 to 9.9 nM	CCCC[C@H]1C(=O)N(C)[C@@H](CCCC)C(=O)N[C@@H](CC(C)C)C(=O)N[C@H](C(=O)NCC(=O)N[C@@H](CCC(=O)NCCCOCCOCCOCCCNC(=O)C[C@H](NC(=O)CCCCCCCCCCCCCCCCC(=O)O)C(=O)O)C(=O)O)CSCC(=O)N[C@@H](Cc2ccc(O)cc2)C(=O)N(C)[C@@H](C)C(=O)N[C@@H](CC(N)=O)C(=O)N2CCC[C@@H]2C(=O)N[C@@H](CN)C(=O)N[C@@H](CC(C)C)C(=O)N2C[C@@H](O)C[C@@H]2C(=O)N[C@@H](Cc2c[nH]c3ccccc23)C(=O)N[C@@H](CCN)C(=O)N[C@@H](Cc2cn(CC(=O)O)c3ccccc23)C(=O)N1C [Example 11234] ({CH2CO}-Y[NMeA]N[dP][Dap]L[dHyp]W[Dab][Trp(1-CH2COOH)][NMeNle][NMeNle]LCGE(X4)-OH; thioether N-14)
10 to 99 nM	CCCC[C@H]1C(=O)N(C)[C@@H](CCCC)C(=O)N[C@@H](CC(C)C)C(=O)N[C@H](C(=O)NCC(=O)N[C@@H](CC(=O)O)C(=O)N[C@@H](CC(=O)NCCCOCCOCCOCCCNC(=O)C[C@H](NC(=O)CCCCCCCCCCCCCCCCC(=O)O)C(=O)O)C(=O)O)CSCC(=O)N[C@@H](Cc2ccc(O)cc2)C(=O)N(C)[C@@H](C)C(=O)N[C@@H](CC(N)=O)C(=O)N2CCC[C@@H]2C(=O)N[C@@H](CN)C(=O)N[C@@H](CC(C)C)C(=O)N2C[C@@H](O)C[C@@H]2C(=O)N[C@@H](Cc2c[nH]c3ccccc23)C(=O)N[C@@H](CCN)C(=O)N[C@@H](Cc2cn(CC(=O)O)c3ccccc23)C(=O)N1C [Example 11232] ({CH2CO}-Y[NMeA]N[dP][Dap]L[dHyp]W[Dab][Trp(1-CH2COOH)][NMeNle][NMeNle]LCGDD(X4)-OH; thioether N-14)
0.3 to 9.9 nM	CCCC[C@H]1C(=O)N(C)[C@@H](CCCC)C(=O)N[C@@H](CC(C)C)C(=O)N[C@H](C(=O)N[C@@H](CC(=O)O)C(=O)N[C@@H](CC(=O)NCCCOCCOCCOCCCNC(=O)CC[C@H](NC(=O)CCCCCCCCCCCCCCCCC(=O)O)C(=O)O)C(=O)O)CSCC(=O)N[C@@H](Cc2ccc(O)cc2)C(=O)N(C)[C@@H](C)C(=O)N[C@@H](CC(N)=O)C(=O)N2CCC[C@H]2C(=O)N[C@@H](CN)C(=O)N[C@@H](CC(C)C)C(=O)N2C[C@H](O)C[C@H]2C(=O)N[C@@H](Cc2c[nH]c3ccccc23)C(=O)N[C@@H](CCN)C(=O)N[C@@H](Cc2cn(CC(=O)O)c3ccccc23)C(=O)N1C [Example 11227] ({CH2CO}-Y[NMeA]NP[Dap]L[Hyp]W[Dab][Trp(1-CH2COOH)][NMeNle][NMeNle]LCDD(X6)-OH; thioether N-14)
10 to 99 nM	CCCC[C@H]1C(=O)N(C)[C@@H](CCCC)C(=O)N[C@@H](CC(C)C)C(=O)N[C@H](C(=O)NCC(=O)N[C@@H](CC(=O)CCCCOCCOCCOCCCNC(=O)CC[C@H](NC(=O)CCCCCCCCCCCCCCC(=O)O)C(=O)O)C(=O)O)CSCC(=O)N[C@@H](Cc2ccc(O)cc2)C(=O)N(C)[C@@H](C)C(=O)N[C@@H](CC(N)=O)C(=O)N2CCC[C@H]2C(=O)N[C@@H](CN)C(=O)N[C@@H](CC(C)C)C(=O)N2C[C@H](O)C[C@@H]2C(=O)N[C@@H](Cc2c[nH]c3ccccc23)C(=O)N[C@@H](CCN)C(=O)N[C@@H](Cc2cn(CC(=O)O)c3ccccc23)C(=O)N1C [Example 11158] ({CH2CO}-Y[NMeA]NP[Dap]L[d(cisHyp)]W[Dab][Trp(1-CH2COOH)][NMeNle][NMeNle]LCG[X23]([γGlu-C16 diacid])-OH; thioether N-14)

From patent US10633419B2, “Immunomodulators” (BRISTOL-MYERS SQUIBB COMPANY, priority 2014, dated 2020)
